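The concentration for 50% growth inhibition is given as GI50. The concentration for full growth arrest is given as TGI.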
What was measured:
Test in all cases: NCI tumour cell line growth inhibition, 384-well format
[1] = tested on: DU-145 prostate
[2] = tested on: NCI-H23 lung
[3] = tested on: MDA-MB-231 breast
[4] = tested on: HOP-92 NSCLC
[5] = tested on: SNB-75 CNS
[6] = tested on: NCI-H322M lung
[7] = tested on: BT-549 breast
[8] = tested on: UO-31 renal
[9] = tested on: SK-MEL-2 melanoma
[10] = tested on: SNB-19 CNS
[11] = tested on: NCI-H522 lung
[12] = tested on: UACC-62 melanoma
[13] = tested on: RXF 393 renal
[14] = tested on: HCC-2998 colon
[15] = tested on: RPMI-8226 leukemia
[16] = tested on: T-47D breast
[17] = tested on: SK-MEL-5 melanoma
[18] = tested on: HOP-62 NSCLC
[19] = tested on: SN12C renal
[20] = tested on: MDA-MB-435 melanoma
[21] = tested on: ACHN renal
[22] = tested on: MDA-MB-468 breast
[23] = tested on: HCT-116 colon
[24] = tested on: OVCAR-5 ovarian
[25] = tested on: CCRF-CEM leukemia
[26] = tested on: PC-3 prostate
[27] = tested on: U251 glioblastoma
[28] = tested on: HCT-15 colon
[29] = tested on: A498 renal
[30] = tested on: MCF7 breast
[31] = tested on: COLO 205 colon
[32] = tested on: UACC-257 melanoma
[33] = tested on: MALME-3M melanoma
[34] = tested on: NCI-H226 lung
[35] = tested on: A549 NSCLC
[36] = tested on: SK-MEL-28 melanoma
[37] = tested on: HT29 colon
[38] = tested on: SF-268 CNS
[39] = tested on: NCI-H460 NSCLC
[40] = tested on: SF-539 CNS
[41] = tested on: KM12 colon
[42] = tested on: 786-0 renal
[43] = tested on: OVCAR-8 ovarian
[44] = tested on: SK-OV-3 ovarian
[45] = tested on: SW-620 colon
[46] = tested on: EKVX NSCLC
[47] = tested on: LOX IMVI melanoma

Work on `NC(=O)c1cccc2cn(-c3ccc([C@@H]4CCCNC4)cc3)nc12` yielded a GI50 [1] of 4.89 µM, a TGI [1] of 16.1 µM and a GI50 [2] of 5.93 µM. The TGI [2] was 19.6 µM, the GI50 [3] was 14.7 µM and the TGI [3] was 29 µM. The GI50 [4] was 14.3 µM, the TGI [4] was 28.3 µM and the GI50 [5] was 4.68 µM. The TGI [5] was 16.5 µM, the GI50 [6] was 18.2 µM and the TGI [6] was 34.1 µM. For the same compound, the GI50 [7] was 9.95 µM, the TGI [7] was 22 µM and the GI50 [8] was 14 µM. It also gave a TGI [8] of 27.7 µM, a GI50 [9] of 23.2 µM and a TGI [9] of 37.9 µM. The GI50 [10] was 18.3 µM, the TGI [10] was greater than 54.2 µM and the GI50 [11] was 15.1 µM. The TGI [11] was 29 µM, the GI50 [12] was 12 µM and the TGI [12] was 24.5 µM. For the same compound, the GI50 [13] was 16.7 µM, the TGI [13] was 30.5 µM and the GI50 [14] was 14 µM. The TGI [14] was 27.1 µM, the GI50 [15] was 9.26 µM and the TGI [15] was 23.1 µM. It also gave a GI50 [16] of 12.6 µM, a TGI [16] of 26.2 µM and a GI50 [17] of 7.81 µM. It also gave a TGI [17] of 19.4 µM, a GI50 [18] of 3.12 µM and a TGI [18] of 11.3 µM. The TGI [19] was greater than 43.4 µM, the GI50 [20] was 17.5 µM and the TGI [20] was 33.6 µM. For the same compound, the GI50 [21] was 9.72 µM, the TGI [21] was 21.7 µM and the GI50 [22] was 1.49 µM. It also gave a TGI [22] of 4.17 µM, a GI50 [23] of 4.73 µM and a TGI [23] of 18.3 µM. It also gave a GI50 [24] of 24 µM, a TGI [24] of 59.6 µM and a GI50 [25] of 1.83 µM. For the same compound, the TGI [25] was 3.71 µM, the GI50 [26] was 15.4 µM and the TGI [26] was 46.6 µM. The GI50 [27] was 12.2 µM, the TGI [27] was 25.1 µM and the GI50 [28] was 11.9 µM. The TGI [28] was 24.8 µM, the GI50 [29] was 16.7 µM and the TGI [29] was 30.5 µM. It also gave a GI50 [30] of 6.48 µM, a TGI [30] of 18.8 µM and a GI50 [31] of 11 µM. For the same compound, the TGI [31] was 23.2 µM, the GI50 [32] was 16.8 µM and the TGI [32] was 30.6 µM. For the same compound, the GI50 [33] was 12.8 µM, the TGI [33] was 25.6 µM and the GI50 [34] was 12.5 µM. It also gave a TGI [34] of 25.2 µM, a GI50 [35] of 11.8 µM and a TGI [35] of 24.5 µM. The GI50 [36] was 16.2 µM, the TGI [36] was 29.9 µM and the GI50 [37] was 13.4 µM. For the same compound, the TGI [37] was 26.6 µM, the GI50 [38] was 5.24 µM and the TGI [38] was 20.1 µM. The GI50 [39] was 3.06 µM, the TGI [39] was 13.4 µM and the GI50 [40] was 5.66 µM. It also gave a TGI [40] of 18.2 µM, a GI50 [41] of 14.7 µM and a TGI [41] of 28.9 µM. It also gave a GI50 [42] of 12.7 µM, a TGI [42] of 26.3 µM and a GI50 [43] of 7.24 µM. It also gave a TGI [43] of 20.6 µM, a GI50 [44] of 11.7 µM and a TGI [44] of 28.8 µM. The GI50 [45] was 6.05 µM, the TGI [45] was 22.4 µM and the GI50 [46] was 17.7 µM. The TGI [46] was 34.7 µM, the GI50 [47] was 7.47 µM and the TGI [47] was 19.9 µM.

From PubChem BioAssay (NCI)
